Laboratory results published in patent EP4656642A1, “ESTROGEN RECEPTOR PROTEOLYSIS TARGETING CHIMERA COMPOUND AND USE THEREOF” (GAN & LEE PHARM CO., LTD, priority 2023, dated 2024).

Experiments:
Type in all cases: cell-based
ERα [1] = target: T1, ERα (Homo sapiens, UniProt P03372); assay: Degradation of ERα in T-47D cells (immunoblotting, 4 h); design: host or cells: T-47D
T1 sequence (P03372 1-595): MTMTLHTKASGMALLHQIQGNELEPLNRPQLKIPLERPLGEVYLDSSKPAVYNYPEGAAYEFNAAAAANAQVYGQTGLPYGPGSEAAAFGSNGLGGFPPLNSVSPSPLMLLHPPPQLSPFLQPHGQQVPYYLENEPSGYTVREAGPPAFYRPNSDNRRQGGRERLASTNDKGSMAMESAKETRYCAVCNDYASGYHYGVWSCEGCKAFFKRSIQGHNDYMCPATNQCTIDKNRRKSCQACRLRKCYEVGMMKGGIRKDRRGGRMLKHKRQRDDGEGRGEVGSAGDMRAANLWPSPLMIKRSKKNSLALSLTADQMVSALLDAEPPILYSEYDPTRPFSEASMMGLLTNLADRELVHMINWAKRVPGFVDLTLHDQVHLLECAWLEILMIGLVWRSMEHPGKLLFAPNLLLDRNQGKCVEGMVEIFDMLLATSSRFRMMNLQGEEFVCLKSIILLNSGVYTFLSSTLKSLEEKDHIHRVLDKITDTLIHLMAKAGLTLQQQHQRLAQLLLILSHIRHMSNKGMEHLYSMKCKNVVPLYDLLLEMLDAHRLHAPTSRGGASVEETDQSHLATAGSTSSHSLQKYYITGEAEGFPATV
How it was run: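 ERα protein levels were assessed by immunoblot of RIPA lysates (with protease inhibitor) after 4 h exposure at 37°C. Compound was added in DMSO to T-47D cells at final concentrations of 0.15-1000 nM.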

MCF-7 cells = assay: Inhibition of cell proliferation of MCF-7 cells (CCK-8, 9 days)
How it was run: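 Read-out was CCK-8 viability after 9-day continuous exposure (37°C, 5% CO2) of MCF-7 cells plated at 800/well in 10% FBS DMEM across several compound concentrations. Values are proliferation IC50s.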

ERα [2] = target: T1, ERα; assay: Degradation of ERα in MCF-7 cells (immunoblotting, 4 h)
How it was run: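 Degradation rate reflects ERα band intensity, corrected to an internal reference protein, relative to control. Values come from Western blotting of lysates from MCF-7 cells exposed 4 h at 37°C to compounds at final concentrations of 0.15-1000nM.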

T-47D cells = assay: Inhibition of cell proliferation in T-47D cells (CCK-8, 6 days); conditions: 6 days of treatment
How it was run: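 Viability read-out was CCK-8 after 6 days of compound treatment (37 °C, 5% CO2) across graded concentrations. Cells were T-47D seeded at 3,000 per well in 1640 medium plus 10% FBS. IC50 was calculated against proliferation.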

[3] = treated for 9 days, CCK-8 kit (Table 6)

SMILES	Degradation rate (%) of ERα in T-47D cells (ERα [1]; 1nM compound) [%]	Degradation rate (%) of ERα in T-47D cells (ERα [1]; 10nM compound) [%]	IC50 (MCF-7 cells; [3]) [nM]	Degradation rate (%) of ERα in MCF-7 cells (ERα [2]; 1nM compound) [%]	Degradation rate (%) of ERα in MCF-7 cells (ERα [2]; 10nM compound) [%]	IC50 (T-47D cells; Table 3) [nM]	IC50 (MCF-7 cells; 9 days of treatment, CCK-8, Table 5) [nM]	IC50 (T-47D cells; Table 2) [nM]
O=C1CCC(N2Cc3cc4c(cc3C2=O)OC2(CC4)CN(C(=O)C3CCC4(CC3)CN(c3ccc([C@@H]5c6ccc(O)cc6CC[C@@H]5c5ccccc5)cc3)C4)C2)C(=O)N1 (stereo partly shown) [A47]	-10	37	871	9	14	11.7		
C[C@H]1CN(C(=O)C2(F)CCN(c3ccc([C@@H]4c5ccc(O)cc5CC[C@@H]4c4ccccc4)cc3)CC2)CCC1N1CCC2(CC1)COc1c2ccc2c1CN(C1CCC(=O)NC1=O)C2=O (stereo partly shown) [A97]	45	78	217	50	75	2.33		
O=C1CCC(N2C(=O)c3ccc4c(c3C2=O)OC2(CC4)CCN(C3CCC4(CC3)CN(c3ccc([C@@H]5c6ccc(O)cc6CC[C@@H]5c5ccccc5)cc3)C4)CC2)C(=O)N1 (stereo partly shown) [L8]	32	21	990	27	27	13.5		
O=C1CCC(N2Cc3c(ccc4c3OCC43CCN(C4CCN(C(=O)C5CC6(CCN(c7ccc([C@@H]8c9ccc(O)cc9CC[C@@H]8c8ccccc8)cc7)CC6)C5)CC4)CC3)C2=O)C(=O)N1 (stereo partly shown) [A85]	68	88	9880	45	65	1.12		
O=C1CCC(N2Cc3c(ccc4c3OCC43CCN(C(=O)C4CC5(CCN(c6ccc([C@@H]7c8ccc(O)cc8CC[C@@H]7c7ccccc7)cc6)CC5)C4)CC3)C2=O)C(=O)N1 (stereo partly shown) [A86]	46	74	85	5	32	1.64		
O=C1CCC(N2Cc3cc4c(cc3C2=O)OC2(CC4)CCN(C3CCC4(CC3)CN(c3ccc(C5c6ccc(O)cc6CCC5c5ccccc5)cc3)C4)CC2)C(=O)N1 (stereo not shown) [A23]		53			14		10	9
O=C1CCC(N2Cc3c(ccc4c3OCC43CCN(C(=O)C4CCC(CN5CCC(C#Cc6ccc(C7c8ccc(O)cc8CCC7c7ccccc7)cc6)CC5)CC4)CC3)C2=O)C(=O)N1 (stereo not shown) [C6]	38	49	92.5	27	42	2.93		
O=C1CCC(N2Cc3c(ccc4c3OCC43CCN(C4CCN(C5CN(c6ccc([C@@H]7c8ccc(O)cc8CC[C@@H]7c7ccccc7)cc6)C5)CC4)CC3)C2=O)C(=O)N1 (stereo partly shown) [A61]	9	-2	837	-4	-19	27		
O=C1CCC(N2Cc3c(ccc4c3OCC43CCN(C4CCN(C(=O)C5CCN(c6ccc([C@@H]7c8ccc(O)cc8CC[C@@H]7c7ccccc7)cc6)CC5)[C@@H](C(=O)N5CC(F)(F)C5)C4)CC3)C2=O)C(=O)N1 (stereo partly shown) [C4]	54	85	67	38	75	1.17		
N#CC1(CN2CCC3(CC2)COc2c3ccc3c2CN(C2CCC(=O)NC2=O)C3=O)CCN(C(=O)C2CCN(c3ccc([C@@H]4c5ccc(O)cc5CC[C@@H]4c4ccccc4)cc3)CC2)CC1 (stereo partly shown) [A108]	41	73	7390	22	46	1.8		
O=C1CCC(N2Cc3ccc4c(c3C2=O)OCC42CCN(C3CCC4(CC3)CN(c3ccc([C@@H]5c6ccc(O)cc6CC[C@@H]5c5ccccc5)cc3)C4)CC2)C(=O)N1 (stereo partly shown) [L25]	-1	17	757	-20	6	7.97		
O=C1CCC(N2C(=O)c3cc4c(cc3C2=O)C2(CCN(CC3CCC5(CC3)CCN(c3ccc([C@@H]6c7ccc(O)cc7CC[C@@H]6c6ccccc6)cc3)CC5)CC2)CO4)C(=O)N1 (stereo partly shown) [A36]	2	-23	270	11	-14	21		
O=C1CCC(N2Cc3c(ccc4c3OCC43CCN(C4CCN(C5CCN(c6ccc([C@@H]7c8ccc(O)cc8CC[C@@H]7c7ccccc7)cc6)CC5)CC4F)CC3)C2=O)C(=O)N1 (stereo partly shown) [H34]	30	77	10.9	42	65	1.33		
C[C@@H]1C[C@H](N2CCC3(CC2)COc2c3ccc3c2CN(C2CCC(=O)NC2=O)C3=O)CCN1C1CC2(CCN(c3ccc([C@@H]4c5ccc(O)cc5CC[C@@H]4c4ccccc4)cc3)CC2)C1 (stereo partly shown) [H30]	37	74	0.115	-1	62	5.78		
C[C@H]1CN(c2ccc([C@@H]3c4ccc(O)cc4CC[C@@H]3c3ccccc3)cc2)CCN1C[C@H]1CC[C@H](C(=O)N2CCC3(CC2)COc2c3ccc3c2CN(C2CCC(=O)NC2=O)C3=O)CC1 (stereo partly shown) [B36]	54	68	21700	55	55	1.03		
CN(CC1CCN(c2ccc([C@@H]3c4ccc(O)cc4CC[C@@H]3c3ccccc3)cc2)CC1)[C@H]1CC[C@H](C(=O)N2CCC3(CC2)COc2c3ccc3c2CN(C2CCC(=O)NC2=O)C3=O)CC1 (stereo partly shown) [N3]	30	70	195	-4	1	4.92		
C[C@@H]1Cc2c(ccc3[nH]ncc23)[C@@H](c2c(F)cc(N3CCC4(CCN(CC(=O)N5CCC6(CC5)COc5c6ccc6c5CN(C5CCC(=O)NC5=O)C6=O)CC4)CC3)cc2F)N1CC(F)F (stereo partly shown) [C10]	65	80	54.8	53	65	0.5		
